Read-outs that look alike come from different tables or passages of the source.
Key:
Format in all cases: cell-based, human
HCT-116 cells = assay: Inhibition test for sphere-forming ability of cancer cells (Test Example 1), HCT-116; conditions: for IC50: concentration for 50% inhibition of cell proliferation, read-out: IC50 (μmol/L) HCT-116 (Sphere IC50 value); for inhibitory effect on the sphere-forming ability of cancer cells: Test Example 1, summary in words, cell line not given (HCT-116, HT-29, FaDu tested)
Excerpt: (§1) The reliable methods established for measuring the self-renewal ability of cells which is one of the CSC's properties include a method for measuring the sphere-forming ability of cancer cells in non-adherent condition in the absence of serum (Cancer Res 65, 5506-5511 (2005)). Human colorectal cancer-derived HCT-116 cells, human colon-adenocarcinoma-derived HT-29 cells, and human pharyngeal cancer-derived FaDu cells were available from American Type Culture Collection (ATCC). HCT-116 cells and HT-29 cells were cultured at 37° C. under 5% CO2 using the McCoy's 5a medium containing 10% fetal bovine serum (FBS) and 1% penicillin/streptomycin, and FaDu cells were cultured at 37° C. under 5% CO2 using the MEM medium containing 10% FBS, 1% non-essential amino acid, 1% sodium pyruvate, and 1% penicillin/streptomycin. HCT-116 cells, HT-29 cells, and FaDu cells were seeded in a 384 Well Black Clear Bottom Ultra-Low Attachment Microplate (Corning Cat. No. 3827) in an amount of 350-800 cells/well using the DMEM/F12 medium containing 2% B27 supplement (GIBCO), 20 ng/mL epidermal growth factor (EGF) (peprotech), 10 ng/mL basic fibroblast growth factor (bFGF) (peprotech), 5 μg/mL insulin (Sigma), and 1% penicillin/streptomycin. Each test compound was added into each well to adjust the final concentration of DMSO to 0.1%, and the cells were cultured for 4 days. The number of viable cells in each well was then measured with CellTiter-Glo® Luminescent Cell Viability Assay (Promega) to calculate the concentration of each test compound for 50% inhibition of cell proliferation (Sphere IC50 value; μmol/L).
(§2) The experiment of Test Example 1 was performed for each compound of each Example. The concentration of each test compound for 50% inhibition of cell proliferation (Sphere IC50 value; μmol/L) is shown in the following Table.

FaDu cells = assay: Inhibition test for sphere-forming ability of cancer cells (Test Example 1), FaDu; conditions: for (100%-inhibition rate of cell proliferation) at 1 μmol/L, FaDu: value with %; for IC50: concentration for 50% inhibition of cell proliferation, read-out: IC50 (μmol/L) FaDu (Sphere IC50 value)
Excerpt: as §1, §2

HT-29 cells = assay: Inhibition test for sphere-forming ability of cancer cells (Test Example 1), HT-29; conditions: for (100%-inhibition rate of cell proliferation) at 1 μmol/L, HT-29: value with %; for IC50: concentration for 50% inhibition of cell proliferation, read-out: IC50 (μmol/L) HT-29 (Sphere IC50 value)
Excerpt: as §1, §2

[1] = HCT-116 cells, 1 μmol/L, value with %
[2] = Homo sapiens, read-out: (100%-inhibition rate of cell proliferation) at 1 μmol/L, 1 μmol/L, value with %

IC50 (HCT-116 cells; HCT-116 cells) [µmol/L] | IC50 (FaDu cells) [µmol/L] | IC50 (HT-29 cells) [µmol/L] | Compound | also measured
– | – | – | COc1ccc(C(=O)Nc2cn(Cc3ccc4c(c3)C(C)(C)CCC4(C)C)cn2)cc1OC [Example 172] | (100%-inhibition rate of cell proliferation) at 1 μmol/L, HCT-116 (HCT-116 cells; [1]): 34.3%; (100%-inhibition rate of cell proliferation) at 1 μmol/L, FaDu (FaDu cells): 42.3%; (100%-inhibition rate of cell proliferation) at 1 μmol/L, HT-29 (HT-29 cells): 16.6%
7.51 | 6.15 | 4.5 | Cc1ccncc1/C=C/C(=O)Nc1cn(Cc2cccc(Cl)c2)cn1 [Example 91] | –
0.69 | 0.09 | 0.09 | O=C(Nc1cn(Cc2cccc(Cl)c2)cn1)c1ccc(OCc2ccccc2)nc1 [Example 206] | inhibitory effect on the sphere-forming ability of cancer cells (HCT-116 cells): particularly potent inhibitory effect
0.05 | < 0.01 | < 0.01 | CCOc1ccc(/C=C/C(=O)Nc2cn(Cc3cccc(Cl)c3)cn2)cc1 [Example 74] | inhibitory effect on the sphere-forming ability of cancer cells (HCT-116 cells): particularly potent inhibitory effect
– | – | – | O=C(Nc1cn(Cc2cccc(OC(F)(F)F)c2)cn1)/C(F)=C/c1cccnc1 [Example 111] | IC50 (HCT-116 cells; Homo sapiens, HCT-116 cells): 9.31 µmol/L; IC50 (FaDu cells; Homo sapiens): 0.99 µmol/L; IC50 (HT-29 cells; Homo sapiens): 0.83 µmol/L
– | – | – | Nc1ccc(/C=C/C(=O)Nc2cn(Cc3cccc(Cl)c3)cn2)cn1 [Example 19, (E)-3-(6-Aminopyridin-3-yl)-N-(1-(3-chlorobenzyl)-1H-imidazol-4-yl)acrylamide] | IC50 (HCT-116 cells; Homo sapiens, HCT-116 cells): 0.89 µmol/L; IC50 (FaDu cells; Homo sapiens): 0.66 µmol/L; IC50 (HT-29 cells; Homo sapiens): 0.6 µmol/L
0.96 | 0.04 | 0.61 | O=C(/C=C/c1c[nH]c2ccccc12)Nc1cn(Cc2cccc(Cl)c2)cn1 [Example 89] | –
– | – | – | CCCCNC(=O)c1ccc(/C=C/C(=O)Nc2cn(Cc3cccc(Cl)c3)cn2)cn1 [Example 27] | IC50 (HCT-116 cells; Homo sapiens, HCT-116 cells): > 10 µmol/L; IC50 (FaDu cells; Homo sapiens): 5.84 µmol/L; IC50 (HT-29 cells; Homo sapiens): 3.38 µmol/L
– | – | – | CCOc1ccc(/C=C/C(=O)Nc2cn(Cc3cccc(OC(F)(F)F)c3)cn2)cn1 [Example 112] | IC50 (HCT-116 cells; Homo sapiens, HCT-116 cells): > 10 µmol/L; inhibitory effect on the sphere-forming ability of cancer cells (HCT-116 cells): particularly potent inhibitory effect; IC50 (FaDu cells; Homo sapiens): 0.07 µmol/L; IC50 (HT-29 cells; Homo sapiens): 0.04 µmol/L
4.56 | 0.86 | 0.72 | COCCCOc1ccc(C(=O)Nc2cn(Cc3cccc(Cl)c3)cn2)cn1 [Example 204] | –
– | – | – | CCCOc1ccc(C(=O)Nc2cn(Cc3cccc(Cl)c3)cn2)cn1 [Example 136] | (100%-inhibition rate of cell proliferation) at 1 μmol/L, HCT-116 (HCT-116 cells; [1]): 44.2%; (100%-inhibition rate of cell proliferation) at 1 μmol/L, FaDu (FaDu cells): 75.2%; (100%-inhibition rate of cell proliferation) at 1 μmol/L, HT-29 (HT-29 cells): 71.8%
0.74 | 0.56 | 0.09 | O=C(/C=C/c1ccc(F)cc1)Nc1cn(Cc2cccc(Cl)c2)cn1 [Example 62] | –
7.2 | 6.13 | 3.75 | O=C(/C=C/c1ccccc1Cl)Nc1cn(Cc2cccc(Cl)c2)cn1 [Example 51] | –
– | – | – | Cc1cccc(C(=O)Nc2cn(Cc3cccc(Cl)c3)cn2)n1 [Example 279] | viability at 1 µM (HCT-116 cells; Homo sapiens, read-out: (100%-inhibition rate of cell proliferation) at 1 μmol/L, HCT-116 cells, 1 μmol/L, value with %): 87.4%; viability at 1 µM (FaDu cells; [2]): 47.2%; viability at 1 µM (HT-29 cells; [2]): 42.3%
– | – | – | COc1ccc(/C=C/C(=O)Nc2cn(Cc3cccc(Cl)c3)cn2)cc1OCC(N)=O [Example 30] | IC50 (HCT-116 cells; Homo sapiens, HCT-116 cells): > 10 µmol/L; IC50 (FaDu cells; Homo sapiens): 0.71 µmol/L; IC50 (HT-29 cells; Homo sapiens): > 10 µmol/L
> 10 | 6.39 | 2.39 | CN(C)CCOc1ccc(C(=O)Nc2cn(Cc3cccc(Cl)c3)cn2)cn1 [Example 205] | –
0.78 | 0.84 | 0.99 | COc1ccc(C(=O)Nc2cn(Cc3cccc(OC(F)(F)F)c3)cn2)cn1 [Example 212] | –
– | – | – | COc1ccc(C(=O)Nc2cn(Cc3c(F)ccc(C)c3F)cn2)cc1OC [Example 167] | (100%-inhibition rate of cell proliferation) at 1 μmol/L, HCT-116 (HCT-116 cells; [1]): 30.5%; (100%-inhibition rate of cell proliferation) at 1 μmol/L, FaDu (FaDu cells): 59.3%; (100%-inhibition rate of cell proliferation) at 1 μmol/L, HT-29 (HT-29 cells): 15.6%
0.83 | 0.07 | 0.09 | O=C(/C=C/c1ccc(N2CCOCC2)cc1)Nc1cn(Cc2cccc(Cl)c2)cn1 [Example 96] | inhibitory effect on the sphere-forming ability of cancer cells (HCT-116 cells): particularly potent inhibitory effect

IC50 (HCT-116 cells; HCT-116 cells) [µmol/L] | IC50 (FaDu cells) [µmol/L] | IC50 (HT-29 cells) [µmol/L] | Compound | also measured
0.07 | 0.01 | < 0.01 | O=C(/C=C/c1ccc([N+](=O)[O-])cc1)Nc1cn(Cc2cccc(Cl)c2)cn1 [Example 68] | inhibitory effect on the sphere-forming ability of cancer cells (HCT-116 cells): particularly potent inhibitory effect
– | – | – | Cn1cc(/C=C/C(=O)Nc2cn(Cc3cccc(Cl)c3)cn2)ccc1=O [Example 12] | IC50 (HCT-116 cells; Homo sapiens, HCT-116 cells): 7.54 µmol/L; IC50 (FaDu cells; Homo sapiens): 1.44 µmol/L; IC50 (HT-29 cells; Homo sapiens): 0.92 µmol/L
4.42 | 0.29 | 0.09 | Cc1ccccc1/C=C/C(=O)Nc1cn(Cc2cccc(Cl)c2)cn1 [Example 72] | –
8.98 | 0.09 | 0.08 | O=C(/C=C/c1ccc(-c2ccccc2)cc1)Nc1cn(Cc2cccc(Cl)c2)cn1 [Example 70] | –
0.58 | 0.08 | 0.06 | COc1cc(C(=O)Nc2cn(Cc3cccc(Cl)c3)cn2)cnc1OC [Example 218] | inhibitory effect on the sphere-forming ability of cancer cells (HCT-116 cells): particularly potent inhibitory effect
0.82 | 0.09 | 4.93 | Cc1cc(/C=C/C(=O)Nc2cn(Cc3cccc(Cl)c3)cn2)oc1C [Example 93] | inhibitory effect on the sphere-forming ability of cancer cells (HCT-116 cells): particularly potent inhibitory effect
– | – | – | COc1ccc(/C=C/C(=O)Nc2cn(Cc3cccc(Cl)c3)cn2)cc1 [Example 118, (E)-N-(1-(3-Chlorobenzyl)-1H-imidazol-4-yl)-3-(4-methoxyphenyl)acrylamide] | IC50 (HCT-116 cells; Homo sapiens, HCT-116 cells): 0.1 µmol/L; inhibitory effect on the sphere-forming ability of cancer cells (HCT-116 cells): particularly potent inhibitory effect; IC50 (FaDu cells; Homo sapiens): 0.07 µmol/L; IC50 (HT-29 cells; Homo sapiens): < 0.01 µmol/L
– | – | – | COc1ccc(C(=O)Nc2cn(Cc3ccc(C)c(Cl)c3)cn2)cc1OC [Example 295] | (100%-inhibition rate of cell proliferation) at 1 μmol/L, HCT-116 (HCT-116 cells; [1]): 83.0%; (100%-inhibition rate of cell proliferation) at 1 μmol/L, FaDu (FaDu cells): 31.8%; (100%-inhibition rate of cell proliferation) at 1 μmol/L, HT-29 (HT-29 cells): 37.8%
0.81 | 0.79 | 0.82 | CCOc1ccc(C(=O)Nc2cn(Cc3cccc(C(F)(F)F)c3)cn2)cn1 [Example 210] | –
– | – | – | O=C(/C=C/c1cccnc1)Nc1cn(Cc2cccc(C(F)(F)F)c2)cn1 [Example 103] | IC50 (HCT-116 cells; Homo sapiens, HCT-116 cells): 0.87 µmol/L; IC50 (FaDu cells; Homo sapiens): 0.6 µmol/L; IC50 (HT-29 cells; Homo sapiens): 0.6 µmol/L
– | – | – | COc1ccc(C(=O)Nc2cn(Cc3cccc(C)c3)cn2)cc1OC [Example 291] | (100%-inhibition rate of cell proliferation) at 1 μmol/L, HCT-116 (HCT-116 cells; [1]): 70.8%; (100%-inhibition rate of cell proliferation) at 1 μmol/L, FaDu (FaDu cells): 37.8%; (100%-inhibition rate of cell proliferation) at 1 μmol/L, HT-29 (HT-29 cells): 37.1%
9.79 | 0.59 | 0.69 | CCOc1cccc(/C=C/C(=O)Nc2cn(Cc3cccc(Cl)c3)cn2)c1 [Example 64] | –
0.82 | 0.54 | 0.38 | O=C(/C=C/c1ccc(F)cc1F)Nc1cn(Cc2cccc(Cl)c2)cn1 [Example 69] | –
– | – | – | O=C(Nc1cn(Cc2cccc(C(F)(F)F)c2)cn1)/C(F)=C/c1cccnc1 [Example 106] | IC50 (HCT-116 cells; Homo sapiens, HCT-116 cells): 8.29 µmol/L; IC50 (FaDu cells; Homo sapiens): 3.06 µmol/L; IC50 (HT-29 cells; Homo sapiens): 0.8 µmol/L
> 10 | > 10 | 5.55 | O=C(Nc1cn(Cc2cccc(C(F)(F)F)c2)cn1)c1ccc2cccnc2c1 [Example 195] | –
0.92 | 0.74 | 0.74 | O=C(Nc1cc(-c2ccccc2)n[nH]1)c1cn(Cc2cccc(Cl)c2)cn1 [Example 259] | –
0.83 | 0.89 | 0.67 | CC(C)Oc1ccc(C(=O)Nc2cn(Cc3cccc(Cl)c3)cn2)cn1 [Example 207] | –
0.8 | 0.91 | 0.6 | O=C(/C=C/c1cc(Cl)ccc1Cl)Nc1cn(Cc2cccc(Cl)c2)cn1 [Example 83] | –

Reference: US10898469B2, “Imidazolylamide derivative” (Sumitomo Dainippon Pharma Co., Ltd., priority 2016, dated 2021)
